Test [1] has as its system NCI-H596 tumors. In words: Combination efficacy of MetMAb with erlotinib in the NCI-H596 hu-HGF-Tg-C3H-SCID xenograft model. The format is in vivo. Particulars: NCI-H596 tumors in hu-HGF-Tg-C3H-SCID mice, MetMAb 30 mg/kg IP once, erlotinib 150 mg/kg PO QD x2 weeks; for reduction in tumor growth compared to the vehicle control: day 20. As for the experimental part:
Test Material. Anti-c-met monovalent monoclonal antibody MetMAb (rhuOA5D5v2) was provided by the Antibody Engineering Department at Genentech, Inc., in a clear liquid form at 10.6 mg/ml. The vehicle was 10 mM histidine succinate, 4% trehalose dihydrate, 0.02% polysorbate 20, pH 5.7. Erlotinib (TARCEVA™) was provided by OSI Pharmaceuticals to the Pharmaceutics Department at Genentech and was weighed out along with a sufficient amount of vehicle (methylcellulose tween (MCT)). All material was shipped from Genentech, Inc. to the Van Andel Research Institute (VARI; Grand Rapids, Mich.) and was formulated prior to animal treatments. Materials were stored in a refrigerator set to maintain a temperature range of 4° C. to 8° C. The NCI-H596 cell line was obtained from American Type Culture collection (Manassas, Va.).
Species. Forty human HGF transgenic C3H-SCID mice (hu-HGF-Tg-C3H-SCID) were obtained from the in-house colony at the Van Andel Research Institute (VARI; Grand Rapids, Mich.). Five C3H-SCID mice were obtained from Jackson Laboratories. Animals were 4-6 weeks old and weighed 21-22 grams each. Mice were acclimated to study conditions for at least three days prior to tumor cell inoculations. Mice were housed in a shower-in barrier facility. Animals were housed in ventilated caging systems in rooms with filters supplying High-Efficiency Particulate Air (HEPA). Only animals that appeared to be healthy and were free of obvious abnormalities were used for the study.
Study design. As most HGF responsive tumors are driven in a paracrine fashion, a xenograft model that models paracrine driven growth was selected. Mouse HGF is a poor ligand for human c-met leading to a low biological response of human c-met expressing cells lines to mouse HGF (Bhargava, M., et al., 1992; Rong, S., et al., 1992). […]
The NCI-H596 cell line bears a mutated form of the c-met gene lacking exon 14 that encodes a binding site for the E3 ubiquitin ligase Cbl (Kong-Beltran, M., 2006). […] The responsiveness of NCI-H596 can also be seen in vivo, as the cell line readily form tumors in HGF-Tg-SCID mice (expressing human HGF, as noted above), but will not form tumors in immunocompromised mice lacking human HGF (nu/nu nude mice or SCID mice). […]
NCI-H596 cells were cultured in growth media that consisted of RPMI 1640 media (Invitrogen), 2 mM L-glutamine, and 10% fetal bovine serum. […] A subset of cells was counted by trypan blue exclusion and the remainder of the cells was resuspended in 100 μl of sterile 1× PBS to a concentration of 5×10^6 cells per milliliter.
Mice were prepared for inoculation by shaving the dorsal area with clippers. […] Tumors were monitored until they reached a mean volume of 100 mm^3. […]

For test [2], the system named is NCI-H596 cells. Put plainly: NCI-H596 cell viability assay (Celltiter-Glo) with TGFα +/- HGF. The format is cell-based, human. As for the experimental part: Cells: NCI-H596 cells were obtained from the American Type Culture Collection (ATCC) and were maintained in RPMI 1640 supplemented with 10% fetal bovine serum (FBS; Sigma, St. Louis, Mo.), and 2 mM L-glutamine. Cell assay media was changed as described below depending upon the experiment.
Therapeutics and Growth factors: Erlotinib and MetMAb were from Genentech, Inc., as described above. HGF and TGFα were generated at Genentech.
Cell Viability Assays: For cell viability assays, cells were plated in quadruplicate at 1×10^3 cells per well in 384-well plates in RPMI containing 0.5% FBS (assay medium) overnight, prior to stimulation with assay medium containing 3 nM TGF-a+/−HGF. Erlotinib was added at multiple concentrations and 72 hours later, cell viability was measured using the Celltiter-Glo Luminescent Cell Viability Assay (Promega, Madison, Wis.).
To determine whether activation of the c-met pathway could change the response of NCI-N596 cells to erlotinib, cells were stimulated with TGFα, treated with erlotinib and/or HGF, then cell viability was assayed.
For orientation: In ATP-based viability assays light output follows the ATP content of the culture.

Entries after “also recorded” stand apart in the source; their conditions may differ.

Consider `C#Cc1cccc(Nc2ncnc3cc(OCCOC)c(OCCOC)cc23)c1` [erlotinib, N-(3-ethynylphenyl)-6,7-bis(2-methoxyethoxy)-4-quinazolinamine], for which, in test [1], the “reduction in tumor growth compared to the vehicle control” value was “statistically insignificant reduction” and the “mean time to tumor doubling (TTD)” value is 9.5 (±1.2) days. Further, the “sensitivity (response) of cells to erlotinib in the presence of HGF” value in test [2] (TGFα plus HGF 0.5 to 50 ng/ml, 72 hours) is recorded as “Reduction in relative response; also recorded: dramatically reduced in a dose-dependent manner; also recorded: attenuated response”. Moreover, the “cell viability when grown in the presence of erlotinib and TGFα” value in test [2] (TGFα, no HGF) is reported as “reduced cell viability”.

B1: MetMAb: Anti-c-met monovalent monoclonal antibody MetMAb (rhuOA5D5v2) (WO2007/063816) (antibody, chains of the INN, looked up, V domains shown)
VH: EVQLVESGGGLVQPGGSLRLSCAASGYTFTSYWLHWVRQAPGKGLEWVGMIDPSNSDTRFNPNFKDRFTISADTSKNTAYLQMNSLRAEDTAVYYCATYRSYVTPLDYWGQGTLVTVSS
VL: DIQMTQSPSSLSASVGDRVTITCKSSQSLLYTSSQKNYLAWYQQKPGKAPKLLIYWASTRESGVPSRFSGSGSGTDFTLTISSLQPEDFATYYCQQYYAYPWTFGQGTKVEIK
modifications: one-armed
Regarding B1, in test [1], the “reduction in tumor growth compared to the vehicle control” value is 67% and the “mean time to tumor doubling (TTD)” value is 17.8 (±2.2) days. Further, in test [2] (TGFα and HGF (50 ng/ml), MetMAb 1 μM, varying erlotinib), the “effect of MetMAb on erlotinib sensitivity (cell viability)” value is recorded as “dramatically restored erlotinib sensitivity”.

For the origin of these results see US20160303127A1, “COMBINATION THERAPY WITH C-MET AND EGFR ANTAGONISTS” (Genentech, Inc., priority 2008, published 2016).
